The values that follow come from patent US20230212571A1, “COMPOSITIONS AND METHODS FOR DELIVERING POLYNUCLEOTIDES” (NeOnc Technologies, Inc., priority 2020, published 2023).

Test [1] has as its system BEC. As to the kind of experiment: ELISA of control BEC supernatants. Type of test: cell-based, human. The settings on record: control BEC supernatants, normoxia. The source says: (§1) Human surgical specimens were obtained following written informed consent from patients in accordance with Declaration of Helsinki guidelines and the Institutional Review Board (HS-04B053), at Keck School of Medicine, USC. AVM-BECs were isolated from brain tissues of patients who underwent microsurgical AVM resection. Control BECs were isolated from the structurally normal […] of patients who underwent temporal lobectomy for intractable epilepsy. Endothelial cell (EC) isolation and culture were described^5,9. (Stapleton C J, Armstrong D L, Zidovetzki R, Liu C Y, Giannotta S L, Hofman F M. Thrombospondin-1 modulates the angiogenic phenotype of human cerebral arteriovenous malformation endothelial cells. Neurosurgery. 2011; 68(5):1342-1353) (Ferreira R, Santos T, Amar A, et al. Argonaute-2 promotes miR-18a entry in human brain endothelial cells. J Am Heart Assoc. 2014; 3(3):e000968) ECs were only used between passages 3-5. Experiments were performed under shear flow conditions (12 dyn/cm^2) to reproduce arterial flow^6. (Ferreira R, Santos T, Amar A, et al. MicroRNA-18a improves human cerebral arteriovenous malformation endothelial cell function. Stroke. 2014; 45(1):293-297). For hypoxic experiments, cells were cultured in a Galaxy 48R (Eppendorf) incubator at 3% O2. MicroRNAs were co-administered with Ago-2 to increase the cellular uptake of miR-18a^9 (Ferreira R, Santos T, Amar A, et al. Argonaute-2 promotes miR-18a entry in human brain endothelial cells. J Am Heart Assoc. 2014; 3(3):e000968) (FIG. 9). Methods regarding cell treatments and transfections were included in Data.
(§2) Small interfering RNA transfection was performed as previously described^5. Briefly, ECs were transfected with small interfering RNA (siRNA) against ID1 or PAI-1 (Thermo Fisher Scientific), or small interfering control (Santa Cruz Biotechnology) constructs using Lipofectamine RNAiMax (Thermo Fisher Scientific) per the manufacturer's instructions. Knockdown of ID1 or PAI-1 was confirmed by quantitative real-time polymerase chain reaction as described^6 (FIG. 19). The sequences of the forward and reverse primers for ID1 and PAI-1 were included in Table 2.
(§3) Plasmid constructs pcDNA3-ALK2^WT (Addgene #80870) and pcDNA3-ALK2^Q207D (Addgene #80871) were a gift from Aristidis Moustakas^7. (Meyer B, Schaller C, Frenkel C, Ebeling B, Schramm J. Distributions of local oxygen saturation and its response to changes of mean arterial blood pressure in the cerebral cortex adjacent to arteriovenous malformations. Stroke. 1999; 30(12):2623-2630) 10^4 AVM-BEC were seeded 24 h before transfection. The plasmid vector containing the 3′ untranslated region (3′UTR) of human BMP4, pRP [Exp]-Puro-CMV>Luciferase:{hBMP4_3′UTR}, was constructed and packaged by VectorBuilder. The vector ID is VB200205-1078zdv, which can be used to retrieve detailed information about the vector on vectorbuilder.com. Transient transfections were performed with Lipofectamine RNAiMax (Thermo Fisher Scientific) according to the manufacturer's instructions. After 4 h, medium was replaced by fresh medium containing microRNA.
(§4) MiR-18a (hsa-miR-18a-5p, 40 nM, Dharmacon) or a scramble microRNA (40 nM, Dharmacon) in nuclease-free water was added with argonaute 2 (Ago-2, 0.4 nM, Abcam) as the microRNA carrier and stabilizer^9. (Ferreira R, Santos T, Amar A, et al. Argonaute-2 promotes miR-18a entry in human brain endothelial cells. J Am Heart Assoc. 2014; 3(3):e000968). No transfection reagent was used with miR-18a or scramble microRNA treatments. Recombinant human TSP-1 (R&D Systems) stock solution was prepared in PBS and further diluted in culture medium to be used at a final concentration of 1000 ng/mL. Cells were treated during 24 h for mRNA and 48 h for protein expression studies. NEO100 (NeOnc Technologies) stock was prepared in DMSO and used immediately or stored at −20° C. […]
In general terms: ELISA stands for enzyme-linked immunosorbent assay.

In test [2] the test system is AVM-BEC. As to the kind of experiment: ELISA of AVM-BEC supernatants. Type of test: cell-based, human.
From the text: as §1, §2, §3, §4

Test [3] relates to AVM-BEC. The settings on record: previous studies (Stapleton 2011); cited from earlier work.

With “TSP-1: Recombinant human TSP-1 (R&D Systems), used at 1000 ng/mL”, the “levels of secreted PAI-1” value was “without affecting control BEC” in test [1] and “decreased” in test [2] (AVM-BEC supernatants, normoxia, vs scramble microRNA). Besides, the “levels of secreted VEGF” value is reported as “without affecting control BEC” in test [1] and “decreased” in test [2] (AVM-BEC supernatants, normoxia, decrease only reached significance with miR-18a). In test [2] (AVM-BEC, hypoxia 3% oxygen), the PAI-1 secretion entry is listed as “neither treatment with TSP-1 (P=0.3917), nor ID1 knock-down (P=0.1701) were able to significantly decrease the levels of PAI-1”. Also, in test [3], the “migration rate of AVM-BEC” value was “decreases their migration rate”.
